Data: patent US7045512B2 (priority 2003, dated 2006)

How the values were obtained:
[1] = test system: Barley Powdery Mildew; assay: Soil drench for the control of barley powdery mildew; assay type: in vivo, Erysiyphe graminis f.sp. hordei; conditions: 300 ppm, greenhouse soil drench
Method: (§1) Soil Drench for the Control of Barley or Cucumber Powdery Mildew
(§2) Technical grade material formulated as described for foliar sprays is dispensed at defined rates (ml/cm^3) into the soil in the pots for barley and cucumber in the stages as described for the foliar sprays. Treated plants are inoculated, within 24 hours with the respective powdery mildew species as described for the foliar spray tests. Inoculated plants are kept in the greenhouse for 6–8 days for disease development. Disease severity is examined and the % control is calculated as [% disease on untreated plants−% disease on treated plants]/% disease on untreated plants. The results of these tests are shown in Table 2B below under the heading “Drench Application—Barley Powdery Mildew” and “Drench Application—Cucumber Powdery Mildew”.

[2] = test system: Helminthosporium sativum; assay: Foliar spray for the control of barley blotch; assay type: in vivo; conditions: greenhouse foliar spray, barley plants; for pest or weed control at 300 ppm: Helminthosporium, read-out: Foliar Application (Percent Control) Barley Blotch
Method: Foliar Spray for the Control of Barley Blotch Caused by Helminthosporium sativum
Technical grade material at defined ppm rates (w/v) in an acetone:water mixture (1:9) containing 0.1% Tween 20 (v/v) is sprayed to near run-off onto 7-days-old greenhouse-grown barley plants (var. “Robust”) at the cotyledon stage. Treated plants are inoculated within 24 hours from spraying with an aqueous suspension of approximately 15,000 conidia/ml of Helminthosporium sativum grown on artificial medium. Inoculated plants are placed into a high humidity chamber for 24 hr and then transferred to the greenhouse for 4–5 days for disease development. Disease severity is examined and the % control is calculated as [% disease on untreated plants−% disease on treated plants]/% disease on untreated plants.
The results of these tests are shown in Table 2A below under the heading “Foliar Application—Barley Blotch”.

[3] = test system: Pythium ultimum; assay: microbe, parasite or virus in culture; assay type: cell-based
[4] = test system: Fusarium nivale; assay: microbe, parasite or virus in culture; assay type: cell-based
[5] = test system: Erysiyphe graminis f.sp. hordei; assay: Foliar spray for the control of barley powdery mildew; assay type: in vivo; conditions: greenhouse foliar spray, barley plants; for pest or weed control at 300 ppm: Hordeum vulgare, read-out: Foliar Application (Percent Control) Barley Powdery Mildew
Method: Foliar Spray for the Control of Barley Powdery Mildew caused by Erysiyphe graminis f.sp. hordei
Technical grade material at defined ppm rates (w/v) in an acetone:water mixture (1:9) containing 0.1% Tween 20 (v/v) is sprayed to near run-off onto 7-days-old greenhouse-grown barley plants (var. “Robust”) at the cotyledon stage. Treated plants are inoculated within 24 hours by brushing mildew-infected plants over the treated plants. Inoculated plants are kept in the greenhouse for 6–8 days for disease development. Disease severity is examined and the % control is calculated as [% disease on untreated plants−% disease on treated plants]/% diseases in untreated plants. The results of these tests are shown in Table 2A below under the heading “Foliar Application—Barley Powdery Mildew”.

[6] = test system: Pyricularia oryzae; assay: whole plant or invertebrate; assay type: in vivo; conditions: for pest or weed control at 300 ppm: Pyricularia oryzae, foliar, read-out: Foliar Application (Percent Control) Rice Blast
[7] = test system: Rhizoctonia solani; assay: microbe, parasite or virus in culture; assay type: cell-based
[8] = test system: Uromyces appendiculatus; assay: Foliar spray for the control of bean rust; assay type: in vivo; conditions: 300 ppm, greenhouse foliar spray, Pinto bean plants
Method: Foliar Spray for the Control of Bean Rust Caused by Uromyces appendiculatus
Technical grade material at defined ppm rates (w/v) in an acetone:water mixture (1:9) containing 0.1% Tween 20 (v/v) is sprayed to near run-off onto 10-days-old greenhouse-grown Pinto bean plants (var. “Othello”) in the second leaf stage. Treated plants are inoculated within 24 hours with an aqueous suspension of approximately 20,000 uredospores of Uromyces appendiculatus harvested from rust-infected plants. Inoculated plants are placed into a high humidity chamber for 24 hr and then transferred to the greenhouse for two weeks for disease development. Disease severity is examined and the % control is calculated as [% disease on untreated plants−% disease on treated plants]/% disease on untreated plants. The results of these tests are shown in Table 2A below under the heading “Foliar Application—Bean Rust”.

[9] = test system: Phytophthora infestans; assay type: in vivo; conditions: 300 ppm, greenhouse foliar spray, tomato plants
[10] = test system: Sclerotium rolfsii; assay type: cell-based
[11] = test system: Cucumber Powdery Mildew; assay: Soil drench for the control of cucumber powdery mildew; assay type: in vivo; conditions: 300 ppm, greenhouse soil drench
Method: as §1, §2

[12] = test system: Botrytis cinerea; assay: microbe, parasite or virus in culture; assay type: cell-based
[13] = test system: Phytophthora infestans; assay: microbe, parasite or virus in culture; assay type: cell-based
[14] = test system: Botrytis cinerea; assay: Foliar spray for the control of geranium gray mold; assay type: in vivo; conditions: 300 ppm, greenhouse foliar spray, geranium plants
Method: Foliar Spray for the Control of Geranium Gray Mold Caused by Botrytis cinerea
Technical grade material at defined ppm rates (w/v) in an acetone:water mixture (1:9) containing 0.1% Tween 20 (v/v) is sprayed to near run-off onto mature greenhouse-grown geranium plants (var. “Pinto White”) in the second leaf stage. Treated plants are inoculated within 24 hours with an aqueous suspension of approximately 100,000 conidia/ml of Botrytis cinerea grown on artificial medium. Inoculated plants are placed into a high humidity chamber for 5 days and then transferred to the greenhouse for one day for disease development. Disease severity is examined and the % control is calculated as [% disease on untreated plants−% disease on treated plants]/% disease on untreated plants. The results of these tests are shown in Table 2A below under the heading “Foliar Application—Geranium Gray Mold”.

[15] = Globisporangium ultimum, 48 h, read-out: Percent Control Pythium ultimum
[16] = Microdochium nivale, 48 h, read-out: Percent Control Fusarium nivale
[17] = Rhizoctonia solani, 48 h, read-out: Percent Control Rhizoctonia solani
[18] = Botrytis cinerea, 48 h, read-out: Percent Control Botrytis cinerea
[19] = Phytophthora infestans, 48 h, read-out: Percent Control Phytophthora infestants

SMILES	Drench Application (Percent Control) Barley Powdery Mildew [1] [%]	pest or weed control at 300 ppm [2] [%]	inhibition of growth at 100 ppm [3, 15] [%]	inhibition of growth at 100 ppm [4, 16] [%]	pest or weed control at 300 ppm [5] [%]	pest or weed control at 300 ppm [6] [%]	inhibition of growth at 100 ppm [7, 17] [%]	Foliar Application (Percent Control) Bean Rust [8] [%]	Foliar Application (Percent Control) Tomato Late Blight [9] [%]	Percent Control Sclerotium rolfsii [10] [%]	Drench Application (Percent Control) Cucumber Powdery Mildew [11] [%]	inhibition of growth at 100 ppm [12, 18] [%]	inhibition of growth at 100 ppm [13, 19] [%]	Foliar Application (Percent Control) Geranium Gray Mold [14] [%]	inhibition of growth at 10 ppm [3, 15] [%]	inhibition of growth at 10 ppm [4, 16] [%]	inhibition of growth at 10 ppm [7, 17] [%]	inhibition of growth at 10 ppm [12, 18] [%]	inhibition of growth at 10 ppm [13, 19] [%]	further results
CC(C)OC(=O)NNc1ccc(Oc2cccc(C(F)(F)F)c2)cc1 [Compound 1, 1-methylethyl 2-[4-[3-(trifluoromethyl)phenoxy]phenyl]hydrazinecarboxylate]	0	97	100	29	90	79	91	97	12	100	0	100	100	87						
CC(C)OC(=O)NN(C(=O)C(F)(F)F)c1ccc(Oc2cccc(C(F)(F)F)c2)cc1 [Compound 2, 1-methylethyl 2-(trifluoroacetyl)-2-[4-[3-(trifluoromethyl)phenoxy]phenyl]-hydrazine carboxylate]	0	99	100	20	25	15	82	0		67	0	90	100							
CC(C)OC(=O)NN(C)c1ccc(Oc2cccc(C(F)(F)F)c2)cc1 [Compound 3, 1-methylethyl 2-methyl-2-[4-[3-(trifluoromethyl)phenoxy]phenyl]hydrazine carboxylate]	0	0			62	10		0			0			87						inhibition of growth at 50 ppm [3, 15]: 100%; inhibition of growth at 50 ppm [4, 16]: 82%; inhibition of growth at 50 ppm [7, 17]: 63%; inhibition of growth at 50 ppm [12, 18]: 100%; inhibition of growth at 50 ppm [13, 19]: 79%
CC(C)OC(=O)NN(C(=O)C(F)(F)F)c1ccc(Oc2cccc(Cl)c2)nc1 [Compound 6]	0							0	0	98	0			82						Foliar Application (Percent Control) Barley Blotch ([2]; 300 ppm): 97%; Percent Control Pythium ultimum [3]: 25%; Percent Control Fusarium nivale [4]: 71%; Foliar Application (Percent Control) Barley Powdery Mildew ([5]; 300 ppm): 0%; Foliar Application (Percent Control) Rice Blast ([6]; 300 ppm, greenhouse foliar spray, rice plants): 92%; Percent Control Rhizoctonia solani [7]: 100%; Percent Control Botrytis cinerea [12]: 98%; Percent Control Phytophthora infestants ([13]; in vitro, rate 100 ppm, 48 hours): 100%
CC(=O)NNc1ccc(Oc2cccc(C(F)(F)F)c2)c(F)c1 [Compound 7, N′-{3-fluoro-4-[3-(trifluoromethyl)phenoxy]phenyl}acetohydrazide]		80			80	0			0					80	8	8	80	30	0	
CC(C)OC(=O)NNc1ccc(-c2cccc(C(F)(F)F)c2)c(F)c1 [Compound 8, isopropyl 2-[2-fluoro-3′-(trifluoromethyl)-1,1′-biphenyl-4-yl]hydrazine-carboxylate]		98			0	70			0					90	26	22	58	63	18	
CC(C)OC(=O)N=Nc1ccc(Oc2cccc(C(F)(F)F)c2)cc1 [Compound 9, 1-methylethyl [4-[3-(trifluoromethyl)phenoxy]phenyl]diazene carboxylate]	25	97	0	75	15	98	22	45		91	0	77	9							
CC(C)OC(=O)N1CN(C)CN1c1ccc(Oc2cccc(C(F)(F)F)c2)c(F)c1 [Compound 10, 1-methylethyl 2-[3-fluoro-4-[3-(trifluoromethyl)phenoxy]phenyl]-4-methyl-1,2,4-triazolidine-1-carboxylate]		90	0	0	100	0	79					0	0	0						
CCC(=NNc1ccc(Oc2cccc(C(F)(F)F)c2)c(F)c1)[N+](=O)[O-] [Compound 12, 1-{3-fluoro-4-[3-(trifluoromethyl)phenoxy]phenyl}-2-(1-nitropropylidene)-hydrazine]		0			80	0			0					0	3	20	68	18	0	
